Assay results from patent US20250154554A1, “ANTIMICROBIAL SUSCEPTIBILITY” (priority 2022, published 2025).
Where two headings read alike, the source gives them in different places.

Experiments:
K. pneumoniae = experiment: MIC of strains giving very major errors (VME); assay type: cell-based; settings: Klebsiella pneumoniae, strain EB 021, site 2, read-out: MIC
Experimental: (§1) For Colistin (on gram-negative bacteria) and vancomycin (in the case of Staphylococcus), the method used to determine the antimicrobial susceptibility was broth microdilution [5]. […] Standard methodologies were performed from the same inoculum used to spike the blood cultures. Quality control of the reference methods was also performed according to the recommendations of EUCAST and CLSI.
(§2) Positive blood cultures were spiked in blood agar and colonies identified and submitted to antimicrobial susceptibility assay according reference disk diffusion method and/or to MIC values determined by microdilution. The results were analysed using the most recent EUCAST breakpoint tables and the M100 (29th ed.) breakpoint tables from CLSI.

Enterobacterales = experiment: Broth microdilution MIC of meropenem for screening of carbapenemases; assay type: cell-based; settings: the 2 strains found false negative in the carbapenemase screening
Experimental: Standard methodologies were performed from the same inoculum used to spike the blood cultures. Quality control of the reference methods was also performed according to the recommendations of EUCAST and CLSI.

[1] = system: Gram-negative bacteria (Enterobacterales, Pseudomonas, Acinetobacter); settings: for CLSI RM R / EUCAST RM R: number of strains resistant; for CLSI RM S / EUCAST RM S: number of strains susceptible
Experimental: as §1
(§3) All the strains were classified as S, I or R according the reference methods. MIC was determined for vancomycin and colistin. The presence of ESBL on Enterobacterales group I, together with the screening for ESBL on Enterobacterales group II, and the screening for AmpC and presence of carbapenemases according EUCAST protocol for detection of mechanisms of resistance were also performed.
as §2

[2] = system: Gram-positive bacteria (Staphylococcus spp, Enterococcus spp); experiment: Reference method (RM): disk diffusion and/or broth microdilution, S/I/R classification, Gram-positive strains; assay type: cell-based; settings: for CLSI RM R / EUCAST RM R: number of strains resistant; for CLSI RM S / EUCAST RM S: number of strains susceptible;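 as to all read-outs here: susceptibility categories assigned with the latest EUCAST breakpoint tables or CLSI M100 29th edition breakpoints, with quality control of the reference methods following EUCAST and CLSI guidance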
Experimental: as §1, §3, §2

S. aureus = experiment: MIC of strains giving very major errors (VME); assay type: cell-based; settings: strain ST 099, site 2
Experimental: as §1, §2

[3] = CLSI, total of 3 sites, blood cultures
[4] = EUCAST, total of 3 sites, blood cultures
[5] = CLSI, FASTinov, Porto, spiked on blood cultures
[6] = CLSI, Hospital Ramon et Cajal, Madrid, patients' blood cultures
[7] = EUCAST, FASTinov, Porto, spiked on blood cultures
[8] = EUCAST, Hospital Ramon et Cajal, Madrid, patients' blood cultures
[9] = CLSI, Hospital S. João, Porto, patients' blood cultures
[10] = EUCAST, Hospital S. João, Porto, patients' blood cultures
[11] = CLSI, FASTinov, Porto, spiked blood cultures
[12] = EUCAST, FASTinov, Porto, spiked blood cultures
[13] = CLSI, Hospital Ramon et Cajal, Madrid, patients blood cultures
[14] = EUCAST, Hospital Ramon et Cajal, Madrid, patients blood cultures

C[C@@H](O)[C@H]1C(=O)N2C(C(=O)O)=C(S[C@@H]3CN[C@H](C(=O)N(C)C)C3)[C@H](C)[C@H]12 [Meropenem]
MIC (K. pneumoniae): 16 µg/mL
MIC (Enterobacterales): 0.5 µg/mL
RM I (strains intermediate by reference method) [1, 3]: 5
RM R (strains resistant by reference method) [1, 3]: 10
RM S (strains susceptible by reference method) [1, 3]: 217
RM R (strains resistant by reference method) [1, 4]: 9
RM S (strains susceptible by reference method) [1, 4]: 223
CLSI RM I ([1]; number of strains I, CLSI, FASTinov, Porto, spiked on blood cultures): 5
CLSI RM R [1, 5]: 7
CLSI RM R [1, 6]: 3
EUCAST RM R [1, 7]: 6
EUCAST RM R [1, 8]: 3
CLSI RM S [1, 5]: 69
CLSI RM S [1, 6]: 72
CLSI RM S [1, 9]: 76
EUCAST RM S [1, 7]: 75
EUCAST RM S [1, 8]: 72
EUCAST RM S [1, 10]: 76

Penicillin
RM R (strains resistant by reference method) [2, 11]: 82
RM S (strains susceptible by reference method) [2, 11]: 49
RM R (strains resistant by reference method) [2, 3]: 209
RM S (strains susceptible by reference method) [2, 3]: 94
RM R (strains resistant by reference method) [2, 12]: 28
RM S (strains susceptible by reference method) [2, 12]: 7
RM R (strains resistant by reference method) [2, 4]: 56
RM S (strains susceptible by reference method) [2, 4]: 19
CLSI RM R [2, 13]: 53
CLSI RM R [2, 9]: 74
EUCAST RM R [2, 14]: 10
EUCAST RM R [2, 10]: 18
CLSI RM S [2, 13]: 15
CLSI RM S [2, 9]: 30
EUCAST RM S [2, 14]: 2
EUCAST RM S [2, 10]: 10
MIC (S. aureus): 0.25 µg/mL
